# Assay results as given in patent US20250320213A1, “Nitrogen-Containing Heterocyclic Compounds” (Pfizer Inc., priority 2024, published 2025).
# pEC50, pIC50: −log10 of the molar value.
# Columns and labels:
# [1] = biological target: T1, STAT6 (Homo sapiens, UniProt P42226); experiment: STAT6 Reporter Luciferase Assay (IL-13 stimulated HaCaT keratinocyte NanoLuc reporter cells); type: cell-based; settings: IL-13 stimulated HaCaT STAT6 NanoLuc reporter cells; read-out: Reporter EC50
# T1 construct: stably transfected HaCaT keratinocyte cell line, which expresses NanoLuc luciferase reporter gene under the transcriptional control of the STAT6 responsive promoter; endogenous in cells; host or cells: HaCaT keratinocyte reporter cell line (stably transfected with a NanoLuc reporter)
# T1 sequence (P42226 1-847): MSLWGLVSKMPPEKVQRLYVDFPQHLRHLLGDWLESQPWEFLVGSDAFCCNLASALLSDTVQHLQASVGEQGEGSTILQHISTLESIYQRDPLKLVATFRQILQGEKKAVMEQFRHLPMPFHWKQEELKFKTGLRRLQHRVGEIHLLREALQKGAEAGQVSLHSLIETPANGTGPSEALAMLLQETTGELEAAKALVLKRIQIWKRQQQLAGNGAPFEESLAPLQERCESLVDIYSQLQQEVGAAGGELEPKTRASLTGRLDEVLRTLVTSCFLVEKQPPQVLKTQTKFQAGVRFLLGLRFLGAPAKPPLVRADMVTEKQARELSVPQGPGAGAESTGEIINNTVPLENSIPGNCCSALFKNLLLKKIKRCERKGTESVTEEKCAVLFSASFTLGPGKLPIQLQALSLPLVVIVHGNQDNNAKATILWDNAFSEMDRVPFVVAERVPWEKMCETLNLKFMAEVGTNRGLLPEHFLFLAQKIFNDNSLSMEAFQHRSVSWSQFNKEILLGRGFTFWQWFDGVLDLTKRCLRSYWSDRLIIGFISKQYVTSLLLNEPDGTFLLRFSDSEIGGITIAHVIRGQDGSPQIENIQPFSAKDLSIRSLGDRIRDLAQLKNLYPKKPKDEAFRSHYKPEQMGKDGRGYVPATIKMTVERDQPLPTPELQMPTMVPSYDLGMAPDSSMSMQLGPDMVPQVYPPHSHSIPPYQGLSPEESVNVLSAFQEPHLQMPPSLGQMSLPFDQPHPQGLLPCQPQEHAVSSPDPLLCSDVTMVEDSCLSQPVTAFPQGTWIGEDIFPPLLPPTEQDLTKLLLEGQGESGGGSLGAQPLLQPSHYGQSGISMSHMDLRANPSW
# Outline: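 Compounds were tested as 11-point, 4-fold series in duplicate, applied for 2 h at 37 °C in low-serum (2% FBS) DMEM. The cells were a stable HaCaT line with NanoLuc under a STAT6-responsive IL-13Ra2 promoter. After 4 h with 0.12 nM IL-13, Nano-Glo luminescence was measured.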
# [2] = tested on: CCL17 secretion in peripheral human whole blood; experiment: Human Whole Blood (HWB) CCL17 TR-FRET Assay (IL-13 stimulated CCL17 secretion); type: cell-based; settings: human whole blood, IL-13 stimulated
# Outline: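 Compounds are titrated (11 points, 3-fold, duplicate) into fresh heparinized human whole blood and held 2 h at 37 °C before IL-13 challenge (10 ng/mL final). After 48 h at 37 °C, serum CCL17 is measured by TR-FRET sandwich assay and IC50 values are calculated.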
SMILES,pEC50 [1],"pIC50 ([2]; Homo sapiens, 48 h)",pIC50 ([2]; 48 hours)
"COC1CN(C(=O)Nc2ccc(CNC(=O)c3nn(C(C)C)c4c3CN(c3ccc(C(=O)N(C)C)cn3)CC4)cc2)C1 [Example 188, 5-(5-(dimethylcarbamoyl)pyridin-2-yl)-1-isopropyl-N-(4-(3-methoxyazetidine-1-carboxamido)benzyl)-4,5,6,7-tetrahydro-1H-pyrazolo[4,3-c]pyridine-3-carboxamide]",7.96,7.16,
"CC(C)n1nc(C(=O)NCc2ccc(NC(=O)N(C)CC(F)F)cc2)c2c1CCN(c1ccc(C(=O)N(C)C)cn1)C2 [Example 189, N-(4-(3-(2,2-difluoroethyl)-3-methylureido)benzyl)-5-(5-(dimethylcarbamoyl)pyridin-2-yl)-1-isopropyl-4,5,6,7-tetrahydro-1H-pyrazolo[4,3-c]pyridine-3-carboxamide]",8.00,7.02,
"COc1nc(N2CCc3c(c(C(=O)NCc4ccc(NC(=O)N(C)C)cc4)nn3C(C)C)C2)ccc1[C@@]1(C)CCCNC1=O [Example 192, (R)-N-(4-(3,3-dimethylureido)benzyl)-1-isopropyl-5-(6-methoxy-5-(3-methyl-2-oxopiperidin-3-yl)pyridin-2-yl)-4,5,6,7-tetrahydro-1H-pyrazolo[4,3-c]pyridine-3-carboxamide]",5.78,5.19,
"CCOC(=O)Nc1ccc(CNC(=O)c2nn(C(C)C)c3c2CN(c2ccc(C(=O)N(C)C)cn2)CC3)cc1 [Example 236, Ethyl (4-((5-(5-(dimethylcarbamoyl)pyridin-2-yl)-1-isopropyl-4,5,6,7-tetrahydro-1H-pyrazolo[4,3-c]pyridine-3-carboxamido)methyl)phenyl)carbamate]",7.77,,6.60
"CCn1nc(C(=O)NCc2ccc(NC(=O)N(C)C)cc2)c2c1C(C)(C)CN(c1ccc(C(=O)N(C)C)cn1)C2 [Example 238, 5-(5-(dimethylcarbamoyl)pyridin-2-yl)-N-(4-(3,3-dimethylureido)benzyl)-1-ethyl-7,7-dimethyl-4,5,6,7-tetrahydro-1H-pyrazolo[4,3-c]pyridine-3-carboxamide]",8.70,8.05,
"CC(C)n1nc(C(=O)NCc2ccc(NC(=O)N(C)C)cc2)c2c1C(C)(C)CN(c1ccc(C(=O)N(C)C)cn1)C2 [Example 247, 5-(5-(dimethylcarbamoyl)pyridin-2-yl)-N-(4-(3,3-dimethylureido)benzyl)-1-isopropyl-7,7-dimethyl-4,5,6,7-tetrahydro-1H-pyrazolo[4,3-c]pyridine-3-carboxamide]",9.00,8.05,
"CN(C)C(=O)Nc1ccc(CNC(=O)c2nn(CC3CC(F)(F)C3)c3c2CN(c2ccc(C(=O)N(C)C)cn2)CC3)cc1 [Example 248, 1-((3,3-difluorocyclobutyl)methyl)-5-(5-(dimethylcarbamoyl)pyridin-2-yl)-N-(4-(3,3-dimethylureido)benzyl)-4,5,6,7-tetrahydro-1H-pyrazolo[4,3-c]pyridine-3-carboxamide]",7.46,6.88,
"CN(C)C(=O)Nc1ccc(CN2CCCn3nc4c(c3C2=O)CN(c2ccc(C(=O)N(C)C)cn2)CC4)cc1 [Example 252, 6-(10-(4-(3,3-Dimethylureido)benzyl)-11-oxo-1,3,4,7,8,9,10,11-octahydro-2H-pyrido[4′,3′:3,4]pyrazolo[1,5-a][1,4]diazepin-2-yl)-N,N-dimethylnicotinamide]",6.41,5.95,
"CN(C)C(=O)Nc1ccc(CNC(=O)c2nn(CC(C)(C)C)c3c2CN(c2ccc(C(=O)N(C)C)cn2)CC3)cc1 [Example 253, 5-(5-(dimethylcarbamoyl)pyridin-2-yl)-N-(4-(3,3-dimethylureido)benzyl)-1-neopentyl-4,5,6,7-tetrahydro-1H-pyrazolo[4,3-c]pyridine-3-carboxamide]",8.15,6.90,
"CN(C)C(=O)Nc1ccc(CNC(=O)c2nn(C3CCCOC3)c3c2CN(c2ccc(C(=O)N(C)C)cn2)CC3)cc1 (centres unmarked) [Example 254, 5-(5-(dimethylcarbamoyl)pyridin-2-yl)-N-(4-(3,3-dimethylureido)benzyl)-1-(tetrahydro-2H-pyran-3-yl)-4,5,6,7-tetrahydro-1H-pyrazolo[4,3-c]pyridine-3-carboxamide]",7.66,6.74,
"CN(C)C(=O)Nc1ccc(CN2CCn3nc4c(c3C2=O)CN(c2ccc(C(=O)N(C)C)cn2)CC4)cc1 [Example 256, 6-(9-(4-(3,3-dimethylureido)benzyl)-10-oxo-3,4,7,8,9,10-hexahydropyrido[4′,3′:3,4]pyrazolo[1,5-a]pyrazin-2(1H)-yl)-N,N-dimethylnicotinamide]",7.55,6.72,

# Continued, in another order:
pEC50 [1],"pIC50 ([2]; Homo sapiens, 48 h)",SMILES,pIC50 ([2]; 48 hours)
7.82,6.57,"CN(C)C(=O)Nc1ccc(CNC(=O)c2nn(CC3CCC3)c3c2CN(c2ccc(C(=O)N(C)C)cn2)CC3)cc1 [Example 257, 1-(cyclobutylmethyl)-5-(5-(dimethylcarbamoyl)pyridin-2-yl)-N-(4-(3,3-dimethylureido)benzyl)-4,5,6,7-tetrahydro-1H-pyrazolo[4,3-c]pyridine-3-carboxamide]",
8.70,7.52,"C[C@H]1Cc2c(c(C(=O)NCc3ccc(NC(=O)N(C)C)cc3)nn2C)CN1c1ccc(-c2nccn2C)cn1 [Example 259, (S)-N-(4-(3,3-dimethylureido)benzyl)-1,6-dimethyl-5-(5-(1-methyl-1H-imidazol-2-yl)pyridin-2-yl)-4,5,6,7-tetrahydro-1H-pyrazolo[4,3-c]pyridine-3-carboxamide]",
5.45,< 4.52,"CCC(C)(C)n1nc(C(=O)NCc2ccc(NC(=O)N(C)C)cc2)c2c1CCN(c1ccc(C(=O)N(C)C)cn1)C2 [Example 261, 5-(5-(dimethylcarbamoyl)pyridin-2-yl)-N-(4-(3,3-dimethylureido)benzyl)-1-(tert-pentyl)-4,5,6,7-tetrahydro-1H-pyrazolo[4,3-c]pyridine-3-carboxamide]",
8.05,6.89,"CC(C1CCC1)n1nc(C(=O)NCc2ccc(NC(=O)N(C)C)cc2)c2c1CCN(c1ccc(C(=O)N(C)C)cn1)C2 (centres unmarked) [Example 263, 1-(1-cyclobutylethyl)-5-(5-(dimethylcarbamoyl)pyridin-2-yl)-N-(4-(3,3-dimethylureido)benzyl)-4,5,6,7-tetrahydro-1H-pyrazolo[4,3-c]pyridine-3-carboxamide]",
8.15,6.88,"CN(C)C(=O)Nc1ccc(CNC(=O)c2nn(C3CCCC3)c3c2CN(c2ccc(C(=O)N(C)C)cn2)CC3)cc1 [Example 264, 1-cyclopentyl-5-(5-(dimethylcarbamoyl)pyridin-2-yl)-N-(4-(3,3-dimethylureido)benzyl)-4,5,6,7-tetrahydro-1H-pyrazolo[4,3-c]pyridine-3-carboxamide]",
8.52,7.35,"CC(C)n1nc(C(=O)NCc2ccc(NC(=O)N(C)C)cc2)c2c1C1(CC1)CN(c1ccc(C(=O)N(C)C)cn1)C2 [Example 266, 5′-(5-(dimethylcarbamoyl)pyridin-2-yl)-N-(4-(3,3-dimethylureido)benzyl)-1′-isopropyl-1′,4′,5′,6′-tetrahydrospiro[cyclopropane-1,7′-pyrazolo[4,3-c]pyridine]-3′-carboxamide]",
8.30,6.60,"CC(n1nc(C(=O)NCc2ccc(NC(=O)N(C)C)cc2)c2c1CCN(c1ccc(C(=O)N(C)C)cn1)C2)C(C)(C)C (centres unmarked) [Example 278, 1-(3,3-dimethylbutan-2-yl)-5-(5-(dimethylcarbamoyl)pyridin-2-yl)-N-(4-(3,3-dimethylureido)benzyl)-4,5,6,7-tetrahydro-1H-pyrazolo[4,3-c]pyridine-3-carboxamide]",
8.05,7.03,"CC(C)Cn1nc(C(=O)NCc2ccc(NC(=O)N(C)C)cc2)c2c1CCN(c1ccc(C(=O)N(C)C)cn1)C2 [Example 279, 5-(5-(dimethylcarbamoyl)pyridin-2-yl)-N-(4-(3,3-dimethylureido)benzyl)-1-isobutyl-4,5,6,7-tetrahydro-1H-pyrazolo[4,3-c]pyridine-3-carboxamide]",
